Source: patent US11584755B2 (IDEAYA BIOSCIENCES, INC., priority 2017, dated 2023)

How the values were obtained:
Assay type in all cases: biochemical
[1] = target: hXPG (Homo sapiens (Human), UniProt P28715); assay: Enzymatic IC50 assay, FAM-labeled DNA oligomer substrate, fluorescence intensity (XPG); conditions: hXPG 100 nM, substrate 100 nM, reaction time 120 minutes, 23° C.
Procedure: (§1) FEN1, EXO1 or XPG enzyme was incubated with compound or vehicle (DMSO) and the FAM-labeled DNA oligomer substrate in a microtiter plate. The stop buffer contains EDTA to stop the enzymatic reaction. The plate is read for fluorescence intensity. The high control (DMSO) with high fluorescence intensity represents no inhibition of enzymatic reaction while the low control (10 μM) with low fluorescence intensity represents full inhibition of enzymatic reaction.
(§2) • FEN1 • hFEN1: 70 pM • Substrate: 100 nM • Reaction time: 20 minutes • EXO1 • hEXO1: 6 nM, Isoforml • Substrate: 30 nM • Reaction time: 60 minutes • XPG • hXPG: 100 nM • Substrate: 100 nM • Reaction time: 120 minutes
(§3) Annealing Buffer: 50 mM Tris-HCl, 50 mM NaCl, 1 mM DTT Assay buffer: 50 mM Tris-HCl pH 8.0, 10 mM MgCl2, 0.01% BSA, 1 mM DTT Stop buffer: 50 mM EDTA in assay buffer Temperature: 23° C. Total volume: 40 μl Controls: • 0% inhibition control: DMSO • 100% inhibition control: 10 μM (final) 5-chloro-3-hydroxy-1,3-dihydroquinazoline-2,4-dione Enzyme Reaction and Detection: • 1. Prepare 25 μM intermediate stock of the substrate by diluting SEQ ID NO:1, SEQ ID NO:2, and SEQ ID NO:3 in annealing buffer, in a PCR tube. • 2. Place the PCR tube on a heat block, heat at 95° C. for 3 minutes, then drop in 0.2° C. increments over 2 minutes, stopping at 25° C. • 3. Remove the tube and let the tube cool at room temperature. • 4. Transfer 10 μL of 3× final concentration test compounds or DMSO to the appropriate wells of a microtiter plate. • 5. Transfer 10 μL of 3× final concentration enzyme in assay buffer or assay buffer alone to the appropriate wells. • 6. Incubate the plate at room temperature for 15 minutes. • 7. Transfer 10 μL of 3× substrate in assay buffer to all the test wells. • 8. Incubate the plate at room temperature for prescribed reaction time. • 9. Centrifuge the plate at 1000 rpm for 1 minute. • 10. Transfer 10 μL of stop buffer to all the test wells. • 11. Centrifuge the plate at 1000 rpm for 1 minute. • 12. Read the plate on a plate reader.

[2] = target: hEXO1, Isoform1 (Homo sapiens (Human), UniProt Q9UQ84); assay: Enzymatic IC50 assay, FAM-labeled DNA oligomer substrate, fluorescence intensity (EXO1); conditions: hEXO1 6 nM, substrate 30 nM, reaction time 60 minutes, 23° C.
hEXO1, Isoform1, sequence (Q9UQ84 whole entry, canonical isoform): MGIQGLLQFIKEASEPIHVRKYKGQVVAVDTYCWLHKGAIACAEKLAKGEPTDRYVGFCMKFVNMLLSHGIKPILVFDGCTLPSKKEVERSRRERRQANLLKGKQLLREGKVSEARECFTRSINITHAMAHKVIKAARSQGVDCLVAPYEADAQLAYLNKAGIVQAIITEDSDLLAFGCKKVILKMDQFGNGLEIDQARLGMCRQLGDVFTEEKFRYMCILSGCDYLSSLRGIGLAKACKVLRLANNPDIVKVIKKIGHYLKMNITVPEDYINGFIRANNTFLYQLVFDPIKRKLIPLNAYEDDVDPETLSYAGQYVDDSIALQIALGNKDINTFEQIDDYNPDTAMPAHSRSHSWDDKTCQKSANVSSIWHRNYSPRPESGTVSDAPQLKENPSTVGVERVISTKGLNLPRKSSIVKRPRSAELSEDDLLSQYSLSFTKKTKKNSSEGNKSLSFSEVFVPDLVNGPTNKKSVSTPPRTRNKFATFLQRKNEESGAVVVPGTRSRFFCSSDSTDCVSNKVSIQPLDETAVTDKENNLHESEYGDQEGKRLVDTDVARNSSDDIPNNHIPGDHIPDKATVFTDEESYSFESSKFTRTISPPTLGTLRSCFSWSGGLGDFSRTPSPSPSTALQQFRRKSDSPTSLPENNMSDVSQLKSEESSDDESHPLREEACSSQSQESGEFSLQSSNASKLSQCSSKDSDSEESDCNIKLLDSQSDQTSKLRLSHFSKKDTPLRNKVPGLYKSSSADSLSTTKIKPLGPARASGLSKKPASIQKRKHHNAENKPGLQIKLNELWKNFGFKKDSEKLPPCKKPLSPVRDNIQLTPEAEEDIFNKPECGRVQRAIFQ
Procedure: as §1, §2, §3

[3] = target: hFEN1 (Homo sapiens (Human), UniProt P39748); assay: Enzymatic IC50 assay, FAM-labeled DNA oligomer substrate, fluorescence intensity (FEN1); conditions: hFEN1 70 pM, substrate 100 nM, reaction time 20 minutes, 23° C.
hFEN1, sequence (P39748 whole entry): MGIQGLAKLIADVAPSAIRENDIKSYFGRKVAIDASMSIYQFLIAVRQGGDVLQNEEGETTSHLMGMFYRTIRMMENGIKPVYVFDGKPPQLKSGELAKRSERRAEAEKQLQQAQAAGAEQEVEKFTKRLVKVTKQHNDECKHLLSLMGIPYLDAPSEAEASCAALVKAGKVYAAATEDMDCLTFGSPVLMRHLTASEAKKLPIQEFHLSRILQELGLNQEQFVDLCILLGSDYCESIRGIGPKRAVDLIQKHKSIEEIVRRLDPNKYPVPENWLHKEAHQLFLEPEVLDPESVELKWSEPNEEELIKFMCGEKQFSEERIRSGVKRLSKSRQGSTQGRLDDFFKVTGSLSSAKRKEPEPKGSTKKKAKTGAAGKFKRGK
How it was run: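 FEN1, EXO1 or XPG was preincubated 15 min with compound, then the FAM-labelled DNA oligomer substrate was added in Tris-HCl pH 8.0 with 10 mM MgCl2 at 23° C. FEN1 was 70 pM with 100 nM substrate for 20 min, EXO1 6 nM with 30 nM for 60 min, and XPG 100 nM with 100 nM for 120 min. Reactions were EDTA-stopped and read by fluorescence intensity.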

hXPG, sequence (P28715 whole entry): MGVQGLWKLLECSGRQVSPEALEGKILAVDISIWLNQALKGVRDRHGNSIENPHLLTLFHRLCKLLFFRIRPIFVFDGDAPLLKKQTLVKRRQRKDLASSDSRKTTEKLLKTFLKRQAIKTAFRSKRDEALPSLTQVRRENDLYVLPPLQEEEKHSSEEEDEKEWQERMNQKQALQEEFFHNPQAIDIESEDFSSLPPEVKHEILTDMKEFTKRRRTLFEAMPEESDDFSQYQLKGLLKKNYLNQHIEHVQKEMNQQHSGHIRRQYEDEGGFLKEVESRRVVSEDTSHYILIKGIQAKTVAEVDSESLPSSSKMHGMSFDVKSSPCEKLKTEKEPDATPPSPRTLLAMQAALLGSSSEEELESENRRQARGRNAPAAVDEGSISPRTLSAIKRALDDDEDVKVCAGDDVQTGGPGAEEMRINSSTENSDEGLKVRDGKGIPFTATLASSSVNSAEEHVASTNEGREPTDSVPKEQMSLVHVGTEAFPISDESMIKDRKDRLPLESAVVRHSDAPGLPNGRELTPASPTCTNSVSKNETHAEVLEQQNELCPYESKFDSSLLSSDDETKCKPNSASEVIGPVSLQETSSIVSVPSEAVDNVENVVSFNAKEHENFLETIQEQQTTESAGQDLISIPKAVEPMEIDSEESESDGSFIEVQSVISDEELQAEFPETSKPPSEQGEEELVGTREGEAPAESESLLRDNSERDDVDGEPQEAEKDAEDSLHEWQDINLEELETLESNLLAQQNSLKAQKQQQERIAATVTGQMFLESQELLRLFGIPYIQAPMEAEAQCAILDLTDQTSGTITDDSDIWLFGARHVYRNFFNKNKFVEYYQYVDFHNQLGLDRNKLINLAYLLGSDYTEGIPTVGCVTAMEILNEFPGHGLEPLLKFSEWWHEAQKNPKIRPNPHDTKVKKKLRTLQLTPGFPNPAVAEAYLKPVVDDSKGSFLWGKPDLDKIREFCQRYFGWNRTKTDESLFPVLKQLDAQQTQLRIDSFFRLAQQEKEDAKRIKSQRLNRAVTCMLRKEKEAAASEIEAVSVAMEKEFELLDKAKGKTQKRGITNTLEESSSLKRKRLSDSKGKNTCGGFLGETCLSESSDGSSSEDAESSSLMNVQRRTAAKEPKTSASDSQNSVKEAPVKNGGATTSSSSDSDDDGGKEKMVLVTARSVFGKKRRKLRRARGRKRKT

SMILES | IC50 [1] [nM] | IC50 [2] [nM] | IC50 [3] [nM]
O=C(O)c1c(O)c(=O)n(Cc2cnn(Cc3cccnc3)c2)c2ccsc12 [Example 120, 6-hydroxy-5-oxo-4-{[1-(pyridin-3-ylmethyl)-1H-pyrazol-4-yl]methyl}-4,5-dihydrothieno[3,2-b]pyridine-7-carboxylic acid] | 2250 to 10000 | 2250 to 10000 | < 200
O=C(O)c1c(O)c(=O)n(Cc2cnn(Cc3ccncc3)c2)c2ccsc12 [Example 121, 6-hydroxy-5-oxo-4-{[1-(pyridin-4-ylmethyl)-1H-pyrazol-4-yl]methyl}-4,5-dihydrothieno[3,2-b]pyridine-7-carboxylic acid] | 2250 to 10000 | 2250 to 10000 | < 200
Cc1cc(C#N)ccc1Cn1cc(Cn2c(=O)c(O)c(C(=O)O)c3sccc32)cn1 [Example 133, 4-{[1-(4-cyano-2-methylbenzyl)-1H-pyrazol-4-yl]methyl}-6-hydroxy-5-oxo-4,5-dihydrothieno[3,2-b]pyridine-7-carboxylic acid] | 750 to 2250 | 2250 to 10000 | < 200
COc1ccc(-n2cc(Cn3c(=O)c(O)c(C(=O)O)c4sccc43)cn2)cc1 [Example 113, 6-hydroxy-4-{[1-(4-methoxyphenyl)-1H-pyrazol-4-yl]methyl}-5-oxo-4,5-dihydrothieno[3,2-b]pyridine-7-carboxylic acid] | 750 to 2250 | 250 to 750 | < 200
COc1ccc(Cn2c(=O)c(O)c(C(=O)O)c3sc(Cc4ccccc4)cc32)cc1 [Example 29, 2-benzyl-6-hydroxy-4-(4-methoxybenzyl)-5-oxo-4,5-dihydrothieno[3,2-b]pyridine-7-carboxylic acid] | 2250 to 10000 | 2250 to 10000 | 2250 to 10000
Nc1ccc(Cn2c(=O)c(O)c(C(=O)O)c3sccc32)cc1 [Example 53, 4-(4-aminobenzyl)-6-hydroxy-5-oxo-4,5-dihydrothieno[3,2-b]pyridine-7-carboxylic acid] | 2250 to 10000 | 2250 to 10000 | < 200
O=C(O)c1c(O)c(=O)n(Cc2cnc3ccccc3c2)c2ccsc12 [Example 101, 6-hydroxy-5-oxo-4-(quinolin-3-ylmethyl)-4,5-dihydrothieno[3,2-b]pyridine-7-carboxylic acid] | 2250 to 10000 | 250 to 750 | 250 to 750
O=C(O)c1c(O)c(=O)n(Cc2cnn3ccccc23)c2ccsc12 [Example 24, 6-hydroxy-5-oxo-4-(pyrazolo[1,5-a]pyridin-3-ylmethyl)-4,5-dihydrothieno[3,2-b]pyridine-7-carboxylic acid] | < 200 | 750 to 2250 | < 200
O=C(O)c1c(O)c(=O)n(Cc2cnn(Cc3cccc4nonc34)c2)c2ccsc12 [Example 140, 4-{[1-(benzo[c][1,2,5]oxadiazol-4-ylmethyl)-1H-pyrazol-4-yl]methyl}-6-hydroxy-5-oxo-4,5-dihydrothieno[3,2-b]pyridine-7-carboxylic acid] | 2250 to 10000 | 2250 to 10000 | < 200
Cn1cc(Cn2cc(Cn3c(=O)c(O)c(C(=O)O)c4sccc43)cn2)cn1 [Example 143, 6-hydroxy-4-({1-[(1-methyl-1H-pyrazol-4-yl)methyl]-1H-pyrazol-4-yl}methyl)-5-oxo-4,5-dihydrothieno[3,2-b]pyridine-7-carboxylic acid] | 2250 to 10000 | 2250 to 10000 | < 200
O=C(O)c1c(O)c(=O)n(Cc2cnc[nH]2)c2ccsc12 [Example 75, 4-[(1H-imidazol-5-yl)methyl]-6-hydroxy-5-oxo-4,5-dihydrothieno[3,2-b]pyridine-7-carboxylic acid] | > 10000 | 2250 to 10000 | 750 to 2250
O=C(O)c1c(O)c(=O)n(Cc2cccc(Br)c2)c2ccsc12 [Example 1, 4-(3-bromobenzyl)-6-hydroxy-5-oxo-4,5-dihydrothieno[3,2-b]pyridine-7-carboxylic acid] | 2250 to 10000 | 2250 to 10000 | 250 to 750
O=C(O)c1c(O)c(=O)n(Cc2cnn(CC(=O)N3CC[C@H](O)C3)c2)c2ccsc12 [Example 154, (S)-6-hydroxy-4-({1-[2-(3-hydroxypyrrolidin-1-yl)-2-oxoethyl]-1H-pyrazol-4-yl}methyl)-5-oxo-4,5-dihydrothieno[3,2-b]pyridine-7-carboxylic acid] | > 10000 | > 10000 | 250 to 750

Continued, values first:

IC50 [1] [nM] | IC50 [2] [nM] | IC50 [3] [nM] | SMILES
2250 to 10000 | 250 to 750 | < 200 | CS(=O)(=O)Nc1ccc(Cn2c(=O)c(O)c(C(=O)O)c3sccc32)cc1 [Example 16, 6-hydroxy-4-[[4-(methanesulfonamido)phenyl]methyl]-5-oxo-thieno[3,2-b]pyridine-7-carboxylic acid]
2250 to 10000 | 2250 to 10000 | < 200 | O=C(O)c1c(O)c(=O)n(Cc2cnn(CC(=O)N3CCOCC3)c2)c2ccsc12 [Example 156]
750 to 2250 | 2250 to 10000 | < 200 | O=C(O)c1c(O)c(=O)n(Cc2cn(-c3ccc4nc[nH]c4c3)nn2)c2ccsc12 [Example 149, 4-{[1-(1H-benzo[d]imidazol-6-yl)-1H-1,2,3-triazol-4-yl]methyl}-6-hydroxy-5-oxo-4,5-dihydrothieno[3,2-b]pyridine-7-carboxylic acid]
2250 to 10000 | 2250 to 10000 | < 200 | CN(C(=O)Cn1cc(Cn2c(=O)c(O)c(C(=O)O)c3sccc32)cn1)c1ccccc1 [Example 155]
750 to 2250 | 250 to 750 | < 200 | CS(=O)(=O)c1ccc(-n2cc(Cn3c(=O)c(O)c(C(=O)O)c4sccc43)cn2)cc1 [Example 116, 6-hydroxy-4-({1-[4-(methylsulfonyl)phenyl]-1H-pyrazol-4-yl}methyl)-5-oxo-4,5-dihydrothieno[3,2-b]pyridine-7-carboxylic acid]
> 10000 | 2250 to 10000 | < 200 | NC(=O)Cn1cc(Cn2c(=O)c(O)c(C(=O)O)c3sccc32)cn1 [Example 136, 4-{[1-(2-amino-2-oxoethyl)-1H-pyrazol-4-yl]methyl}-6-hydroxy-5-oxo-4,5-dihydrothieno[3,2-b]pyridine-7-carboxylic acid]
2250 to 10000 | 2250 to 10000 | < 200 | Cc1ncc(Cn2c(=O)c(O)c(C(=O)O)c3sccc32)s1 [Example 91, 6-hydroxy-4-[(2-methylthiazol-5-yl)methyl]-5-oxo-4,5-dihydrothieno[3,2-b]pyridine-7-carboxylic acid]
2250 to 10000 | 2250 to 10000 | < 200 | Cn1cc(Cn2c(=O)c(O)c(C(=O)O)c3sccc32)cn1 [Example 90, 6-hydroxy-4-[(1-methyl-1H-pyrazol-4-yl)methyl]-5-oxo-4,5-dihydrothieno[3,2-b]pyridine-7-carboxylic acid]
2250 to 10000 | 2250 to 10000 | < 200 | N#Cc1cccc(Cn2cc(Cn3c(=O)c(O)c(C(=O)O)c4sccc43)cn2)c1 [Example 128, 4-{[1-(3-cyanobenzyl)-1H-pyrazol-4-yl]methyl}-6-hydroxy-5-oxo-4,5-dihydrothieno[3,2-b]pyridine-7-carboxylic acid]
2250 to 10000 | 2250 to 10000 | 250 to 750 | O=C(O)c1c(O)c(=O)n(Cc2ccc(Oc3ccccc3)cc2)c2ccsc12 [Example 81, 6-hydroxy-5-oxo-4-(4-phenoxybenzyl)-4,5-dihydrothieno[3,2-b]pyridine-7-carboxylic acid]
2250 to 10000 | 2250 to 10000 | < 200 | O=C(O)c1c(O)c(=O)n(Cc2cccc(Cl)c2)c2ccsc12 [Example 34, 4-(3-chlorobenzyl)-6-hydroxy-5-oxo-4,5-dihydrothieno[3,2-b]pyridine-7-carboxylic acid]
2250 to 10000 | 2250 to 10000 | < 200 | CC(=O)Nc1ccc(Cn2c(=O)c(O)c(C(=O)O)c3sccc32)cc1 [Example 40, 4-(4-acetamidobenzyl)-6-hydroxy-5-oxo-4,5-dihydrothieno[3,2-b]pyridine-7-carboxylic acid]
